# Data taken from paper PMC5584254, “Identification of novel small molecule Beclin 1 mimetics activating autophagy” (Oncotarget, 2017).
# Structures can show the parent of a compound that is named as a salt.
# Columns and labels:
# PC-3 = test: MTT-based cytotoxicity assay, PC-3; details: Homo sapiens, averages of at least two independent experiments, read-out: Cytotoxicity in different cell lines (IC50, μM) PC-3
# Text: (§1) Human prostate cancer cell lines PC-3 and DU145, were purchased from American Type Culture Collection (ATCC) and used within 50 passages. PC-3a is a derivative of PC-3 that is resistant to chemo/radiotherapy, established in our lab and confirmed by genotyping. All cells were maintained in DMEM (Mediatech, Manassas, VA) supplemented with 10% fetal bovine serum (FBS) (Sigma-Aldrich, St. Louis, MO), 1% Glutamine (Mediatech, Manassas, VA), 1% antibiotics (Mediatech, Manassas, VA). Compounds for primary FP-based HTS screening were from Prestwick, Microsource, University of Kansas Center of Excellence in Chemical Methodologies & Library Development (KU CMLD, Lawrence, KS), and Chembridge libraries. Compounds for MTT and SPR validation experiment were purchased from Microsource (Gaylordsville, CT) and Hit2lead Company (San Diego, CA). Acridine analogues, compound 1–6, were from our in-house library (provided by Specialized Chemistry Center, University of Kansas, Lawrence, KS); compound 7–17 were synthesized as described in supplementary information. (–)-Gossypol was isolated from racemic gossypol as we previously described. ABT-263 and DMSO were purchased from Sigma. MTT-based cytotoxicity assay and western blot analysis was carried out according to our previous publications. The primary antibodies used were LC3B (#2775) (Cell signaling Technology, Danvers, MA) and β-actin (A5441) (Sigma).
# PC-3a = test: MTT-based cytotoxicity assay, PC-3a; details: Homo sapiens, averages of at least two independent experiments, read-out: Cytotoxicity in different cell lines (IC50, μM) PC-3a
# Text: as §1
# PC-3 and PC-3a cells = test: RFP-GFP-LC3 fluorescence microscopy (autophagic flux); assay type: cell-based, Human; details: cells transfected with RFP-GFP-LC3, treated 24 h; PC-3a and PC-3
# Protocol: Figure 5 Acridine compounds induce autophagy in prostate cancer cells (A) LC3-II conversion in western blot analysis indicated the activity of autophagy. Cells were treated with DMSO or compounds for 24 h, and then lysed and processed for western blot analysis of LC3. (–)G and EBSS were used as positive controls. […] Yellow puncta indicate autophagosome (overlay of red and green fluorescence); red puncta indicate autolysosome (due to green fluorescence quenching at the acidic condition). Cells expressing RFP-GFP-LC3 were treated with compounds A13, A15 or A21 at indicated concentration for 24 h.
# PC-3 and PC-3a cells were transfected with ptfLC3 plasmid using Lipofectamine 2000 (Invitrogen Life Technologies, Carlsbad, CA). ptfLC3 was a gift from Tamotsu Yoshimori (Addgene plasmid # 21074), and is a tandem fluorescent-tagged LC3 with mRFP (mRFP, monomeric Red Fluorescent Protein) and EGFP (EGFP, Enhanced Green Fluorescent Protein). Twenty-four hours after transfection, cells were treated with compounds for 24 h, then fixed in 4% formaldehyde for 10 min. Cells were then washed three times with PBS, stained with DAPI (0.5 μg/ml in PBS) for 5 min and observed under a fluorescence microscope (OLYMPUS IX81, Tokyo, Japan) with X 40 lens.
# [1] = target: T1, Bcl-xL-Beclin 1 20-mer complex (Homo sapiens, UniProt Q07817); test: FP competitive binding assay (disruption of Bcl-xL-20-mer complex); details: 2.5 μM Bcl-xL protein, 400 nM fluorescein-labeled 20-mer
# T1 construct: made in house
# Protocol: Figure 1 FP-based HTS for Beclin 1 mimetics (A) Schematic presentation of the Beclin 1 protein and sequences of five synthetic peptides modified from Beclin 1 BH3 peptide. Diagram of human Beclin 1 protein with different domains is shown in the bottom. BH3 domain is necessary and sufficient for interaction with Bcl-2/Bcl-xL. Amino acids in red are the critical residues for the binding. (B) Five fluorescein-labeled Beclin 1 BH3 peptides were tested for their binding ability to Bcl-xL protein in FP assay. Fluorescein-labeled Bak BH3 peptide was used as a positive control. Bcl-xL protein was titrated to a solution of 50 nM peptides. (C) Competitive binding assay with positive controls, ABT-263 and (–)-gossypol ((–)G). […] (D–E) HTS was performed with ~50000 compounds from Prestwick, Microsource, CMLD and Chembridge libraries. The four libraries were divided into two groups and screened separately. Compounds activity (percent of inhibition) of first screen (D) and second screen (E) were shown with Z′ value indicated on top. Plate median + 3SD was used as a threshold to determine the initial hits.
# Bcl-xL protein was immobilized on the sensor chip with 10000 RU.
# All N′-fluorescein-labeled peptides were purchased from Kansas State University (Manhattan, KS). […] 16mer Bak ([…]) sequence was from published literature. Bcl-xL protein (25 kDa, > 90% pure based on SDS–PAGE) was expressed and purified in Protein Product Group, University of Kansas. FP assays were carried out as described in our previous publication with some modified. […] Then, fluorescein-labeled peptide was added to each well with a final concentration of 50 nM and incubated at room temperature for 30 min. Anisotropy measurements were taken at room temperature using a BioTek Synergy H4 plate reader (Biotek, Winooski, VT) following the protocol recommended by the manufacture. The Kd was estimated by nonlinear regression to a one-site binding model using GraphPad Prism 5.0 (GraphPad, San Diego, CA). […] Compound solvent DMSO only was used as a negative control in the competition assay. After 2 h incubation, the plate was read and polarization was calculated.
# DU145 = test: MTT-based cytotoxicity assay, DU145; details: Homo sapiens, DU-145, averages of at least two independent experiments, read-out: Cytotoxicity in different cell lines (IC50, μM) DU145
# Text: as §1
# T1 sequence (Q07817 whole entry, one chain of several): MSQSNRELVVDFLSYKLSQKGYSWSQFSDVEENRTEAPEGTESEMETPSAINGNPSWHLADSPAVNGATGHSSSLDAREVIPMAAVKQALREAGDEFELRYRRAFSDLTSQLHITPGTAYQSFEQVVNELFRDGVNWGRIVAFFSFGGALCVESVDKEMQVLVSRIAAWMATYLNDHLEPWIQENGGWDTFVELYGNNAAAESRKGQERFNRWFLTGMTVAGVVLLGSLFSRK
IC50 [1] [nM],Ki [1] [nM],SMILES,IC50 (PC-3) [µM],IC50 (PC-3a) [µM],RFP-GFP-LC3 puncta (PC-3 and PC-3a cells),IC50 (DU145) [µM]
102000,28000,"CCOc1ccc2nc3cc(N)ccc3c(N)c2c1 [Compound A15, ETHACRIDINE LACTATE]",1.61 ± 0.42,2.33 ± 0.99,many strong red puncta,10.5 ± 1.11
4840,840,"Nc1ccc2cc3ccc(N)cc3nc2c1 [Compound A13, PROFLAVINE HEMISULFATE]",1.08 ± 0.1,0.68 ± 0.16,many strong red puncta,0.81 ± 0.51
48700,13200,"CCN(CC)CCCC(C)Nc1c2ccc(Cl)cc2nc2ccc(OC)cc12 (stereo not drawn) [Compound A21, QUINACRINE HYDROCHLORIDE]",0.77 ± 0.1,0.8 ± 0.12,many strong red puncta,2.31 ± 0.39
